This is an account of results in patent US9055744B2 (priority 2008, dated 2015).

As usually defined, the IC50 is the midpoint of a concentration-inhibition curve. A lower IC50 goes with greater potency in that assay.

One test deals with Cándida albicans. The settings on record: cited from earlier work.
In the next test the test system is Pseudomonas avenae. The experiment in a line: Effect of the antipathogenic protein on bacterial pathogens (growth inhibition). The format is cell-based. The conditions noted are these: concentration where the bacteria growth is inhibit in a 50%; ± standard deviation.
A further test relates to Phytophthora infestans. The format is cell-based. The settings on record: different concentrations.
Test [1] deals with Xanthomonas campestris p.v. phaseoli. Briefly: Effect of the antipathogenic protein on bacterial pathogens (growth inhibition). Type of test: cell-based. The settings on record: concentration where the bacteria growth is inhibit in a 50%; ± standard deviation.
In test [2] the test system is Erwinia chrysanthemi p.v. zea. The test is described as above. The format is cell-based. The settings on record: concentration where the bacteria growth is inhibit in a 50%; ± standard deviation.
Test [3] relates to Erwinia carotovorum p.v. carotovora. The description is as above. Type of test: cell-based. The conditions noted are these: concentration where the bacteria growth is inhibit in a 50%; ± standard deviation.
In test [4] the test system is Pseudomonas syringae p.v. syringae. The description is as above. The settings on record: concentration where the bacteria growth is inhibit in a 50%; ± standard deviation. The format is cell-based.
The subject of another test is several plant pathogens. The format is cell-based.

On to “Rs-AFP2: plant anti-pathogenic protein from the literature (QKLCQRPSGTWSGVCGNNNACKNQCIRLEKARHGSCNYVFPAHKCICYFPC; UniProt P30230 30-80, looked up)”, for which the “activity against Cándida albicans” value in the test on Cándida albicans was “active in micromolar concentrations”.

Regarding “NmDef-02: new anti-pathogenic small cysteine rich protein isolated from Nicotiana megalosiphon; also chemically synthesized without the signal peptide (RECKAQGRHTTCFRDANCVQVCEKQAGWSHGDCRAQFKCKCIFEC; Nicotiana megalosiphon)”, the IC50 with Pseudomonas avenae amounted to 17 ± 5 µM; in test [1], 40 ± 3 µM; in test [2], 11 ± 8 µM; in test [3], 86 ± 8 µM; in test [4], 26 ± 6 µM. Further, the “inhibition of the growth of P. infestans” value in the test on Phytophthora infestans (FIG. 4B) is on record as “high levels of inhibition growth”.

Regarding “SEQ ID No. 9: fragment of the antipathogenic protein NmDef-02 obtained by chemical synthesis (QAGWSHGDCRAQFKCKCIFEC; Nicotiana megalosiphon)”, the “effect of fragments on the pathogen P. infestans” value with Phytophthora infestans (FIG. 6) is “control or inhibition of pathogen”.

B1: NmDef-Plus: antipathogenic protein fused to the signal peptide of the Saccharomyces cerevisiae alpha factor, expressed in Pichia pastoris (protein)
chain: APVNTTTEDETAQIPAEAVIGYSDLEGDFDVAVLPFSNSTNNGLLFINTTIASIAAKEEGVSRECKAQGRHTTCFRDANCVQVCEKQAGWSHGDCRAQFKCKCIFEC
For B1, in the test on several plant pathogens, the “inhibition of the growth of plant pathogens” value is “high levels of inhibition growth”.
